Assay results taken from US12559506B2, “Indazole based compounds and associated methods of use” (Arvinas Operations, Inc., priority 2021, dated 2026).
Where two headings read alike, the source gives them in different places.

Tests used:
[1] = target: T1, G2019S LRRK2 (Homo sapiens, UniProt Q5S007, G2019S); assay: LRRK2 degradation assay, HiBit-tagged G2019S LRRK2 expressed from plasmid in HEK293 cells (Nano-Glo Dual-Luciferase); assay type: cell-based; conditions: 24 hours
T1 construct: expressed in transfected cells; host or cells: HEK293 (ATCC CRL-1573), transient transfection, mammalian expression vector with ubiquitin promoter
T1 sequence (Q5S007 whole entry G2019S): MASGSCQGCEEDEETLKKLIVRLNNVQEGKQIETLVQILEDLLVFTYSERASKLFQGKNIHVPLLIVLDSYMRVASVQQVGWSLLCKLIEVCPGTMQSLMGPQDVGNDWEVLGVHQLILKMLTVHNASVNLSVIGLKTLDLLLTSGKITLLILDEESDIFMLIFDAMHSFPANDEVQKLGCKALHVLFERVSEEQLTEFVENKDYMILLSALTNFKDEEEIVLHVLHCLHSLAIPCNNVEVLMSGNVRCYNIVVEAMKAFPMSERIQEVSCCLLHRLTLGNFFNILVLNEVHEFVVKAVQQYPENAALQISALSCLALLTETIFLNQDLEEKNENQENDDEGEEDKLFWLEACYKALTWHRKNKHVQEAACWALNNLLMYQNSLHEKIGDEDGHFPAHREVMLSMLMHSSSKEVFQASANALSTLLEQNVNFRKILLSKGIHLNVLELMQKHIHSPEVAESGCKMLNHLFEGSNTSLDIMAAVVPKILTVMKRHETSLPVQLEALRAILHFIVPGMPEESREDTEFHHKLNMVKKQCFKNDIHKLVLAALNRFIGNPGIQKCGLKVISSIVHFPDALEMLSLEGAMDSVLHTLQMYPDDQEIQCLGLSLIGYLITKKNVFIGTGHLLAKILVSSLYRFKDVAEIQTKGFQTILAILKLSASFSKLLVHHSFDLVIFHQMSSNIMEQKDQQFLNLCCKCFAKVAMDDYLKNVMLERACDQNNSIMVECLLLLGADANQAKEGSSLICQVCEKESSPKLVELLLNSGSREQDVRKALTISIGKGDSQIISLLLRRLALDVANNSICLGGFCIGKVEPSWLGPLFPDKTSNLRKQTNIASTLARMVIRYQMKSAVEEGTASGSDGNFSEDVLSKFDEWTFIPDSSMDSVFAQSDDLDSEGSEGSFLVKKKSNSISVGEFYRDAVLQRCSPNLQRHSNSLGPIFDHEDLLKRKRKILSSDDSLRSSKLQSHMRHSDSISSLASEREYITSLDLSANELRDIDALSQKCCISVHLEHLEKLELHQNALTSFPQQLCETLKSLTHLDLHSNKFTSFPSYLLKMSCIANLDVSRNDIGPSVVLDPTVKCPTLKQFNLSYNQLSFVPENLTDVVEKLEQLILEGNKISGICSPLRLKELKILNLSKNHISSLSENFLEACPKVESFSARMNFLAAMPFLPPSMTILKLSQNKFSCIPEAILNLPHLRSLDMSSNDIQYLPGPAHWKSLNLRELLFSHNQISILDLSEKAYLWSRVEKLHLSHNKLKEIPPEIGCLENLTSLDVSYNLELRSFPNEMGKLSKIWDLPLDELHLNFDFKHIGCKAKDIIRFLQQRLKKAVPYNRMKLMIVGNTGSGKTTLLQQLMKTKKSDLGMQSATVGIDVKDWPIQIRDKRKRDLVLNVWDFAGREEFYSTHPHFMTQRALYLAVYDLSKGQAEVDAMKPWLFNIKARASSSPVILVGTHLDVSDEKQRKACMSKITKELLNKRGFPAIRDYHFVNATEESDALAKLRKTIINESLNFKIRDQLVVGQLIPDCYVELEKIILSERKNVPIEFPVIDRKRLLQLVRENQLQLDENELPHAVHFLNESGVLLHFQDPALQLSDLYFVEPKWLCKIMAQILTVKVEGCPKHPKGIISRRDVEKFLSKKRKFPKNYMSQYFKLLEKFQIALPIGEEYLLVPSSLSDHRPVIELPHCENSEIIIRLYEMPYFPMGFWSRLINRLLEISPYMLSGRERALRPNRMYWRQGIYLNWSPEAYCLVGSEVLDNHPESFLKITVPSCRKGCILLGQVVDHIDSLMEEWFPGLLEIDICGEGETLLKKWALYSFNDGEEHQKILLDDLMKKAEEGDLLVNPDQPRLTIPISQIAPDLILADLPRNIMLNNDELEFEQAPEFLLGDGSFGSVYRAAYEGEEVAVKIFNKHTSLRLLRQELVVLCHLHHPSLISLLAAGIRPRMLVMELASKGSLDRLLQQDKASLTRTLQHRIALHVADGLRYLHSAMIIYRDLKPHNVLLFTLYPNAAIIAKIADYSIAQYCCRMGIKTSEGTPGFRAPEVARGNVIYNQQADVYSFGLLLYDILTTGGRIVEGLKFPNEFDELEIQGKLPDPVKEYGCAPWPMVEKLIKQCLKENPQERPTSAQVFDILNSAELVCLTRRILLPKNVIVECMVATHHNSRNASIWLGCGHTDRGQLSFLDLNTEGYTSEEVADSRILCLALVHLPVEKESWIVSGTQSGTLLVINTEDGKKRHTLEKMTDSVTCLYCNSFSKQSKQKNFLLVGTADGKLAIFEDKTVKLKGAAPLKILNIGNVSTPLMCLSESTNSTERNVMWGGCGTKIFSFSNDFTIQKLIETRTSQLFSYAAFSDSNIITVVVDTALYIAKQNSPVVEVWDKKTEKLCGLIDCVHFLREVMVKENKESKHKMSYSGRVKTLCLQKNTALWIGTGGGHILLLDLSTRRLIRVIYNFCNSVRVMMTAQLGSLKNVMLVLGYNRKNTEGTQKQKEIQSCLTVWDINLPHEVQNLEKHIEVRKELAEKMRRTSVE
In short: (§1)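 Degradation read as Nano-Glo HiBiT signal over firefly luciferase (cell number/viability) after 24 h compound exposure of transiently transfected HEK293 expressing C-terminally HiBiT-tagged wildtype or G2019S LRRK2. Data as % DMSO; DC50/Dmax fitted per plate, triplicate plates repeated twice.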

[2] = target: T2, wildtype LRRK2 (Homo sapiens, UniProt Q5S007); assay: LRRK2 degradation assay, HiBit-tagged wildtype LRRK2 expressed from plasmid in HEK293 cells (Nano-Glo Dual-Luciferase); assay type: cell-based; conditions: 24 hours; for Dmax: read-out: **WT Dmax (%); for DC50: read-out: *WT DC50
T2 construct: expressed in transfected cells; host or cells: HEK293 (ATCC CRL-1573), transient transfection, mammalian expression vector with ubiquitin promoter
T2 sequence (Q5S007 whole entry): as the sequence (Q5S007 whole entry G2019S) above, with S2019G counted along it
In short: as §1

[3] = HiBit-tagged G2019S LRRK2 in HEK293 cells
[4] = HiBit-tagged wildtype LRRK2 in HEK293 cells
[5] = HiBit-tagged G2019S LRRK2, HEK293 cells
[6] = HiBit-tagged wildtype LRRK2, HEK293 cells

Compound	DC50 [1, 3]	Dmax [1, 3]	Dmax [2, 4]	DC50 [2, 4]	DC50 [1, 5]	Dmax [1, 5]	Dmax [2, 6]	DC50 [2, 6]
CC1(Oc2ccc3[nH]nc(-c4cc(N5CCC(O[C@H]6CC[C@H](OC7CCN(c8ccc9c(c8)C(=O)N(C8CCC(=O)NC8=O)C9=O)CC7)CC6)CC5)ncn4)c3c2)CC1 (stereo partly shown) [Compound 108, 2-(2,6-dioxo-3-piperidyl)-5-[4-[4-[[1-[6-[5-(1-methylcyclopropoxy)-1H-indazol-3-yl]pyrimidin-4-yl]-4-piperidyl]oxy]cyclohexoxy]-1-piperidyl]isoindoline-1,3-dione]	10 to 50 nM	< 50%	50 to 70%	10 to 50 nM				
C[C@H]1CN(c2cc(-c3n[nH]c4ccc(OC5(C)CC5)cc34)ncn2)CCN1CC1CCN(CC2(F)CCN(c3ccc4c(c3)C(=O)N(C3CCC(=O)NC3=O)C4=O)CC2)CC1 (stereo partly drawn) [Compound 70, 2-(2,6-dioxo-3-piperidyl)-5-[4-fluoro-4-[[4-[[(2S)-2-methyl-4-[6-[5-(1-methylcyclopropoxy)-1H-indazol-3-yl]pyrimidin-4-yl]piperazin-1-yl]methyl]-1-piperidyl]methyl]-1-piperidyl]isoindoline-1,3-dione]	< 10 nM	< 50%	< 50%	< 10 nM				
CC1(Oc2ccc3[nH]nc(-c4ccnc(N5CCC(CN6CCC(F)(CN7CCN(c8ccc9c(c8)C(=O)N(C8CCC(=O)NC8=O)C9=O)CC7)CC6)CC5)c4)c3c2)CC1 (stereo not shown) [Compound 82, 2-(2,6-dioxo-3-piperidyl)-5-[4-[[4-fluoro-1-[[1-[4-[5-(1-methylcyclopropoxy)-1H-indazol-3-yl]-2-pyridyl]-4-piperidyl]methyl]-4-piperidyl]methyl]piperazin-1-yl]isoindoline-1,3-dione]	10 to 50 nM	50 to 70%	50 to 70%	10 to 50 nM				
CC1(Oc2ccc3n[nH]c(-c4ccnc(N5CCN(C(=O)C6CCN(CC7CCN(c8ccc9c(c8)C(=O)N(C8CCC(=O)NC8=O)C9=O)CC7)CC6)CC5)c4)c3c2)CC1 (stereo not shown) [Compound 85, 2-(2,6-dioxo-3-piperidyl)-5-[4-[[4-[4-[4-[5-(1-methylcyclopropoxy)-2H-indazol-3-yl]-2-pyridyl]piperazine-1-carbonyl]-1-piperidyl]methyl]-1-piperidyl]isoindoline-1,3-dione]	< 10 nM	< 50%	< 50%	< 10 nM				
C[C@H]1CN(c2cc(-c3n[nH]c4ccc(OC5(C)CC5)cc34)ncn2)CCN1C[C@@H]1CCN(CC2CCN(c3ccc4c(c3)C(=O)N(C3CCC(=O)NC3=O)C4=O)CC2)C1 (stereo partly drawn) [Compound 113, 2-(2,6-dioxopiperidin-3-yl)-5-(4-{[(3R)-3-{[(2S)-2-methyl-4-{6-[5-(1-methylcyclopropoxy)-1H-indazol-3-yl]pyrimidin-4-yl}piperazin-1-yl]methyl}pyrrolidin-1-yl]methyl}piperidin-1-yl)-2,3-dihydro-1H-isoindole-1,3-dione]	< 10 nM	< 50%	50 to 70%	< 10 nM				
C[C@H]1CN(c2cc(-c3n[nH]c4ccc(OC5(C)CC5)cc34)ncn2)CCN1CC1CCN(CCCNc2cccc3c2CN(C2CCC(=O)NC2=O)C3=O)CC1 (stereo partly drawn) [Compound 142, 3-[4-[3-[4-[[(2S)-2-methyl-4-[6-[5-(1-methylcyclopropoxy)-1H-indazol-3-yl]pyrimidin-4-yl]piperazin-1-yl]methyl]-1-piperidyl]propylamino]-1-oxo-isoindolin-2-yl]piperidine-2,6-dione]	10 to 50 nM	< 50%	< 50%	50 to 100 nM				
CC1(Oc2ccc3[nH]nc(-c4cc(N5CCO[C@H](CN6CCC(OC7CCN(c8ccc9c(c8)C(=O)N(C8CCC(=O)NC8=O)C9=O)CC7)CC6)C5)ncn4)c3c2)CC1 (stereo partly drawn) [Compound 150, 2-(2,6-dioxopiperidin-3-yl)-5-{4-[(1-{[(2R)-4-{6-[5-(1-methylcyclopropoxy)-1H-indazol-3-yl]pyrimidin-4-yl}morpholin-2-yl]methyl}piperidin-4-yl)oxy]piperidin-1-yl}-2,3-dihydro-1H-isoindole-1,3-dione]	< 10 nM	50 to 70%	50 to 70%	< 10 nM				
C[C@H]1CN(c2cc(-c3n[nH]c4cc(F)c(OC5(C)CC5)cc34)ncn2)CCN1CC1CCN(CC2CCN(c3ccc4c(c3)C(=O)N(C3CCC(=O)NC3=O)C4=O)CC2)CC1 (stereo partly drawn) [Compound 71, 2-(2,6-dioxopiperidin-3-yl)-5-{4-[(4-{[(2S)-4-{6-[6-fluoro-5-(1-methylcyclopropoxy)-1H-indazol-3-yl]pyrimidin-4-yl}-2-methylpiperazin-1-yl]methyl}piperidin-1-yl)methyl]piperidin-1-yl}-2,3-dihydro-1H-isoindole-1,3-dione]	< 10 nM	< 50%	50 to 70%	< 10 nM				
CC1(Oc2ccc3[nH]nc(-c4cc(N5CCN(CC6CCN(CCCCNc7cccc8c7CN(C7CCC(=O)NC7=O)C8=O)CC6)CC5)ncn4)c3c2)CC1 (stereo not shown) [Compound 143, 3-[4-[4-[4-[[4-[6-[5-(1-methylcyclopropoxy)-1H-indazol-3-yl]pyrimidin-4-yl]piperazin-1-yl]methyl]-1-piperidyl]butylamino]-1-oxo-isoindolin-2-yl]piperidine-2,6-dione]	10 to 50 nM	50 to 70%	< 50%	10 to 50 nM				
CC1(Oc2ccc3[nH]nc(-c4cc(N5CCN(C[C@@H]6CN(CC7CCN(c8ccc9c(c8)C(=O)N(C8CCC(=O)NC8=O)C9=O)CC7)CCO6)CC5)ncn4)c3c2)CC1 (stereo partly drawn) [Compound 156, 2-(2,6-dioxo-3-piperidyl)-5-[4-[[(2R)-2-[[4-[6-[5-(1-methylcyclopropoxy)-1H-indazol-3-yl]pyrimidin-4-yl]piperazin-1-yl]methyl]morpholin-4-yl]methyl]-1-piperidyl]isoindoline-1,3-dione]					< 10 nM	< 50%	50 to 70%	< 10 nM
C[C@H]1CN(c2cc(-c3n[nH]c4ccc(OC5(C)CC5)cc34)ncn2)CCN1CC1CCN(CC2CCN(c3cc4c(cc3F)C(=O)N(C3CCC(=O)NC3=O)C4=O)CC2)CC1 (stereo partly drawn) [Compound 73, 2-(2,6-dioxo-3-piperidyl)-5-fluoro-6-[4-[[4-[[(2S)-2-methyl-4-[6-[5-(1-methylcyclopropoxy)-2H-indazol-3-yl]pyrimidin-4-yl]piperazin-1-yl]methyl]-1-piperidyl]methyl]-1-piperidyl]isoindoline-1,3-dione]	< 10 nM	< 50%	< 50%	< 10 nM				
CC1(Oc2ccc3[nH]nc(-c4cc(N5CCC(CN6CC(CN7CCN(c8ccc9c(c8)C(=O)N(C8CCC(=O)NC8=O)C9=O)CC7)C6)CC5)ncn4)c3c2)CC1 (stereo not shown) [Compound 125, 2-(2,6-dioxo-3-piperidyl)-5-[4-[[11-[[1-[6-[5-(1-methylcyclopropoxy)-1H-indazol-3-yl]pyrimidin-4-yl]-4-piperidyl]methyl]azetidin-3-yl]methyl]piperazin-1-yl]isoindoline-1,3-dione]	< 10 nM	50 to 70%	50 to 70%	< 10 nM				
CC1(Oc2ccc3[nH]nc(-c4ccnc(N5CCOC6(CN(CC7CCN(CC8CCN(c9cccc%10c9C(=O)N(C9CCC(=O)NC9=O)C%10=O)CC8)CC7)C6)C5)c4)c3c2)CC1 (stereo not shown) [Compound 144, 2-(2,6-dioxo-3-piperidyl)-4-[4-[[4-[[8-[4-[5-(1-methylcyclopropoxy)-1H-indazol-3-yl]-2-pyridyl]-5-oxa-2,8-diazaspiro[3.5]nonan-2-yl]methyl]-1-piperidyl]methyl]-1-piperidyl]isoindoline-1,3-dione]	10 to 50 nM	50 to 70%	50 to 70%	10 to 50 nM				
CC1(Oc2ccc3[nH]nc(-c4ccnc(N5CCC(CN6CCN(CC7CCN(c8ccc9c(c8)C(=O)N(C8CCC(=O)NC8=O)C9=O)CC7)CC6)CC5)c4)c3c2)CC1 (stereo not shown) [Compound 78, 2-(2,6-dioxo-3-piperidyl)-5-[4-[[4-[[1-[4-[5-(1-methylcyclopropoxy)-1H-indazol-3-yl]-2-pyridyl]-4-piperidyl]methyl]piperazin-1-yl]methyl]-1-piperidyl]isoindoline-1,3-dione]	< 10 nM	50 to 70%	50 to 70%	< 10 nM				
CC1(Oc2ccc3[nH]nc(-c4cc(N5CCO[C@H](CCN6CCN(CC7CCN(c8ccc9c(c8)C(=O)N(C8CCC(=O)NC8=O)C9=O)CC7)CC6)C5)ncn4)c3c2)CC1 (stereo partly drawn) [Compound 155, 2-(2,6-dioxopiperidin-3-yl)-5-{4-[(4-{2-[(2R)-4-{6-[5-(1-methylcyclopropoxy)-1H-indazol-3-yl]pyrimidin-4-yl}morpholin-2-yl]ethyl}piperazin-1-yl)methyl]piperidin-1-yl}-2,3-dihydro-1H-isoindole-1,3-dione]					< 10 nM	50 to 70%	50 to 70%	< 10 nM
CC1(Oc2ccc3[nH]nc(-c4cc(N5CCN(C[C@H]6CN(CC7CCN(c8ccc9c(c8)C(=O)N(C8CCC(=O)NC8=O)C9=O)CC7)CCO6)CC5)ncn4)c3c2)CC1 (stereo partly drawn) [Compound 157, 2-(2,6-dioxopiperidin-3-yl)-5-(4-{[(2S)-2-[(4-{6-[5-(1-methylcyclopropoxy)-1H-indazol-3-yl]pyrimidin-4-yl}piperazin-1-yl)methyl]morpholin-4-yl]methyl}piperidin-1-yl)-2,3-dihydro-1H-isoindole-1,3-dione]					< 10 nM	≥ 70%	50 to 70%	< 10 nM
